# Reference: patent US20040259135A1, “Biosynthetic labeling and separation of RNA” (priority 2003, published 2004)
# Assays:
# [1] = molecular target: UPRT of the protozoan Toxoplasma gondii (Toxoplasma gondii, UniProt Q26998); details: purified enzyme; 100 different compounds tested in previous studies; cited from earlier work
# human RNA = experiment: Incorporation of thiouracil into RNA of human foreskin fibroblast host cells (HPDP-biotin, streptavidin-HRP northern blot); format: cell-based; details: Toxoplasma-infected human foreskin fibroblasts, 2 mM, 6 hours
# Protocol: (§1) To test for the incorporation of thiouracil into RNA, wild type (WT) parasites and mutants that lack the UPRT enzyme (UPRT(−)) were used to infect human foreskin fibroblasts in culture after which, the normal medium was replaced with medium containing 2 mM 2,4-dithiouracil. Following growth in this medium for 6 hours, the infected cells were harvested and RNA prepared by standard methods using Trizol reagent from Gibco-BRL.
# (§2) The resulting RNA was incubated with HPDP-biotin (EZ-Link Biotin-HPDP (N-(6-(Biotinamido)hexyl)-3′-(2′-pyridyidithio)-propionamide) from Pierce Biotechnology) which specifically reacts with free thiols which are normally not present in RNA. For both RNA samples (WT and UPRT(−)) 25 μg of RNA was incubated with 50 μl of a 1 mg/ml Biotin-HPDP solution and Tris HCl/EDTA buffer (pH 7.4) for 1.5 hours. Biotinylated RNA was precipitated from any excess biotin by isopropanol precipitation and centrifugation. Approximately 2.5 μg of this material was resolved by agarose gel electrophoresis and transferred to a nitrocellulose filter, all by standard procedures. The resulting filter was then probed with streptavidin conjugated to horseradish peroxidase (Streptavidin-HRP) and the bound material detected with chemiluminescence (using the ECL kit from Amersham). […] The upper-most major band is from the large subunit of the human ribosome.
# HeLa cells = experiment: Incorporation of thiouracil into RNA of HeLa cells with or without the Toxoplasma UPRT gene (northern blot); format: cell-based, human; details: 6 hours
# Description: Methods and Results: The coding region of the Toxoplasma UPRT gene was incorporated into the retroviral vector known as LNCX (Miller & Rosman (1989) BioTechniques 7:980-990), placing the UPRT gene under control of the cytomegalovirus immediate-early promoter. This construct was introduced into HeLa cells and cell lines that had stably incorporated the vector were selected using neomycin. Cells that survived this selection and non-transfected HeLa cells were both grown in the presence of 2,4-dithiouracil for 6 hours. RNA was isolated from these cells and labeled with HPDP-biotin as described above. Incorporation of thiouracil was detected by northern blot as described above.
# [2] = system: human foreskin fibroblast cells; experiment: Growth of human foreskin fibroblast host cells in media containing 2,4-dithiouracil; format: cell-based; details: 5 μM to 2 mM 2,4-dithiouracil, even at highest concentration (2 mM)
# Protocol: (§3) Methods and Results: Initial experiments assayed the growth of T gondii within human foreskin fibroblast cells in media containing a range of concentrations of 2,4-dithiouracil (5 μM to 2 mM). Equivalent numbers of parasites were used to infect host cells and the replication of the parasites in the different concentrations of 2,4-dithiouracil was monitored over time.
# T gondii = experiment: Growth of T gondii within human foreskin fibroblast cells in media containing 2,4-dithiouracil; format: cell-based, Toxoplasma gondii; details: 5 μM to 2 mM 2,4-dithiouracil, even at highest concentration (2 mM); replication monitored over time
# Protocol: as §3
# Toxoplasma RNA = experiment: Incorporation of thiouracil into Toxoplasma RNA (HPDP-biotin labeling, northern blot probed with streptavidin-HRP); format: cell-based, Toxoplasma gondii; details: 6 hours
# Protocol: as §1, §2
# UPRT of the protozoan Toxoplasma gondii, sequence (Q26998 whole entry): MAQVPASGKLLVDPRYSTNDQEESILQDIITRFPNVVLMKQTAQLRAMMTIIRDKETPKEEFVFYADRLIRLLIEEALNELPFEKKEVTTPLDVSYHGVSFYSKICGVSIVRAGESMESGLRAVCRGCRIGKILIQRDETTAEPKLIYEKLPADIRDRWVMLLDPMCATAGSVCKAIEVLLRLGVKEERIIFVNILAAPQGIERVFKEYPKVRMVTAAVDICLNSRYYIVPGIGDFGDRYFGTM
Structure (SMILES),substrate of purified UPRT (conversion into nucleoside monophosphate) [1],incorporation into human RNA (human RNA),incorporation of thiouracil into RNA (HeLa cells; HeLa cells that had received the Toxoplasma UPRT gene),incorporation of thiouracil into RNA (HeLa cells; normal (non-transfected) HeLa cells),growth defects of the human cells [2],growth defects of the parasites (T gondii),"incorporation of thiouracil into Toxoplasma RNA, UPRT dependence (Toxoplasma RNA; WT versus mutants that lack the UPRT enzyme (UPRT(−)), 2 mM)","incorporation of thiouracil into Toxoplasma ribosomal RNA (Toxoplasma RNA; wild type parasites in human foreskin fibroblasts, 2 mM 2,4-dithiouracil)"
O=c1c[n+]([O-])cc[nH]1 [emimycin],known toxic substrates,,,,,,,
O=c1[nH]cc(F)c(=O)[nH]1 [5-fluorouracil],known toxic substrates,,,,,,,
"Sc1ccnc(S)n1 [2,4-dithiouracil]",converted into UMP,not incorporated,good incorporation at a level similar to that seen with the parasites,lack the ability to incorporate the thiouracil,No growth defects,No growth defects,only in parasites with the UPRT enzyme,two of the three major bands detectable by ethidium staining of the RNA have thiouracil incorporated into them
